Assay results taken from patent US11980667B2, “Short TAT oligomers for drug delivery” (The Trustees of Columbia University in the City of New York, priority 2017, dated 2024).
“And” between values parts separate entries of the source, which are not always exact repeats. Equal values may be shown once.

Key:
C6 glioma = settings: IA-TCH, 0.5 mg, N=3
Procedure: For in vivo tumor delivery studies, rats were implanted with C6 brain tumor cells as previously described. […] They were scarified 10 minutes later and the brains were harvested and sectioned.
Fluorescence and electron multiplying charge-coupled device imaging. Fluorescence imaging was done with a white light excitation through a 470 nm filter with central frequency. Emission was observed through a 520 nm band pass filter using a fluorescence camera (Prosilica GE™ AVI Technologies Inc.). All images were normalized to the background and to the injected FITC-TAT concentrations—a sample of which was imaged alongside in a capillary tube.

9L glioma tumors = test: Single arrest study: IV versus IA-TCH (multi-spectral imaging and confocal microscopy); format: in vivo, rat
Procedure: Single Arrest Study. 9L glioma tumors were implanted into eight rats. […] Animals were sacrificed 15 minutes after injection. […] Brain tissues were also hematoxylin and eosin stained and imaged by confocal microscopy.

9L glioma = test: IA-TCH versus IV delivery: uptake by multi-spectral imaging of gross specimens; format: in vivo, rat
Source text: (§1) Comparison of […] and IV TAT delivery. Fisher 344 rats weighing about 200 g were utilized. During initial surgery under ketamine-xylazine isoflurane anesthesia 5×10^5 9 L cells were implanted 3 mm below the skull and 2-3 mm posterior and lateral to the bregma through a 1 mm craniotomy. […] The animals were assigned separately to IV and IA-TCH groups. On the day of drug delivery, animals were sedated with isoflurane and injected with ketamine/xylazine. The tail vein was cannulated for intravenous access. Under aseptic precautions, a tracheostomy and carotid cannulation were performed. Anesthesia was maintained by mechanical ventilation with isoflurane (1.8-2.2%). Thereafter animals were turned prone on a stereotactic frame. The skull was exposed and the region of tumor implantation was shaved to transparency. A laser Doppler probe was implanted on the skull with the aid of a plastic holder to assess cerebral/tumor blood flow. Rectal temperature, pulse pleth (volume), pulse oxygen saturation, EKG, expired and inspired gas composition, brain and skin blood flow with lase Doppler were continuously monitored.
(§2) Transient cerebral hypoperfusion and fluorescein-labeled TAT monomer injection. IA injections were made during TCH by the following method. Reduction of blood flow was achieved by bolus IV injections of adenosine (2 mg) and esmolol (2 mg), and cold saline (1.5 mL at 4° C.). Typically such an intervention decreases cerebral blood flow to about 20% of the baseline. The heart rate response varies from sinus bradycardia to a sinus pause. However, physiological parameters rapidly recover within 3-5 minutes. […] For each animal, a test IA injection was done prior to the onset of hypotension to ensure delivery of the desired injection volume and the injection sequence was resumed after bolus IV injections of hypotensive drugs.
Postmortem imaging. In preliminary experiments, known quantities of fluorescein-labeled TAT monomer was dissolved in intralipid and imaged using the multi-spectral imaging system. The multi-spectral imaging system contained two 470 nm light emitting diodes that evenly illuminated the test sample (Thor Labs Inc., NJ). An Evolve-512 (Photometerics Inc., Tucson, AZ) photon multiplying charge coupled device was used to image the sample through a 530 nm band pass filter. The camera is capable of performing background corrections and measuring the photon counts from the region of interest. Imaging conditions (sample, light source, and camera placements) were standardized throughout the experiment.
Immediately after sacrifice, the brains were harvested and immersed in cold saline. […] Samples were loaded on two capillary glass tubes that were placed alongside the tissue samples. Typically each specimen had 4 sections, one of which through the plane of the tumor was sent for frozen section, the remainder were placed in paraformaldehyde for paraffin blocks and histological sectioning.

[1] = Physiological changes during IA-TCH and IV delivery; format: in vivo, rat
Source text: as §1, §2
Physiological parameters. Key parameters included inspired and expired gas composition, laser Doppler skin and brain/tumor blood flow, EKG for heart rate, pleth pulse, oxygen saturation, and rectal temperature which were continuously monitored. Data were analyzed at four time points: baseline, at the time of IA injection, 5 minutes after the start of injection, and at the end of the experiment. […] Immediately after sacrifice, brain tissue was harvested for imaging. All physiological data was recorded at 200 Hz by a Mac Lab data collection system.

[2] = IV injection, confocal microscopy
[3] = IV injection, multi-spectral imaging

## N=C(N)NCCC[C@H](NC(=O)CNC(=O)c1ccc2c(c1)C(=O)OC21c2ccc(O)cc2Oc2cc(O)ccc21)C(=O)N[C@@H](CCCCN)C(=O)N[C@@H](CCCCN)C(=O)N[C@@H](CCCNC(=N)N)C(=O)N[C@@H](CCCNC(=N)N)C(=O)N[C@@H](CCC(N)=O)C(=O)N[C@@H](CCCNC(=N)N)C(=O)N[C@@H](CCCNC(=N)N)C(=O)N[C@@H](CCCNC(=N)N)C(=O)N1CCC[C@H]1C(=O)N1CCC[C@H]1C(=O)N[C@@H](CCC(N)=O)C(=O)N[C@@H](CCC(N)=O)C(=O)O [fluorescein-labeled TAT monomer, 5-FAM-GRKKRRQRRR PPQQ-COOH]
C6 glioma
  Deposition in tumor (semi-quantitative fluorescence imaging): preferentially targeted to the tumor mass in all animals
9L glioma tumors; IA-TCH
  Tumor selectivity: 5-6 ×
9L glioma tumors; IA-TCH, confocal microscopy
  Fluorescence in the tumor versus the contralateral hemisphere: 10.78 ×
  Fluorescence in the tumor versus the ipsilateral brain tissue: 5.07 ×
9L glioma tumors; IA-TCH, multi-spectral imaging
  Fluorescence in the tumor versus the contralateral hemisphere: 9.90 ×
  Fluorescence in the tumor versus the ipsilateral brain tissue: 5.93 ×
9L glioma tumors; [2]
  Fluorescence in the tumor versus the contralateral hemisphere: 2.61 ×
  Fluorescence in the tumor versus the ipsilateral brain tissue: 2.43 ×
9L glioma tumors; [3]
  Fluorescence in the tumor versus the contralateral hemisphere: 2.72 ×
  Fluorescence in the tumor versus the ipsilateral brain tissue: 2.59 ×
9L glioma tumors; IV injections
  Tumor selectivity: 2 ×
9L glioma tumors; rat, in vivo, iv
  Tumor concentration, IA-TCH relative to IV: about four-fold greater
9L glioma; IA-TCH
  Tumor concentration compared to brain tissue on the ipsi-lateral side: 6.1 fold
9L glioma; IA-TCH, n = 6
  Contralateral fluorescence: 0.029 ± 0.012 AU
  Ipsi/contra-lateral ratio: 1.7 ± 0.5
  Ipsilateral fluorescence: 0.047 ± 0.019 AU
  Tumor fluorescence: 0.277 ± 0.139 AU
  Tumor/contralateral ratio: 10.1 ± 4.9
  Tumor/ipsilateral ratio: 6.1 ± 2.6
9L glioma; IV
  Tumor concentration compared to brain tissue on the ipsi-lateral side: 2.3 fold and 2.4 fold
9L glioma; IV, n = 6
  Ipsi/contra-lateral ratio: 1.1 ± 0.3
  Ipsilateral fluorescence: 0.028 ± 0.005 AU
  Tumor fluorescence: 0.063 ± 0.030 AU
  Tumor/contralateral ratio: 2.7 ± 1.5
  Tumor/ipsilateral ratio: 2.4 ± 1.2
9L glioma; rat, in vivo
  Overall effectiveness of IA-TCH relative to IV: 4 ×
[1]; IA-TCH, 5 min
  CBF: 90 ± 32 % Δbase
  ETCO2: 71 ± 17 % Δbase
  HR: 273 ± 59 BMP
  Isoflurane: 1.8 ± 0.8 ET %
  SaO2: 95%
  Sk · BF: 104 ± 38 % Δbase
  Temp: 36.6 ± 1.1 °C
[1]; IA-TCH, Base
  CBF: 100 ± 0 % Δbase
  ETCO2: 100 ± 0 % Δbase
  HR: 289 ± 19 BMP
  Isoflurane: 2.2 ± 0.2 ET %
  SaO2: 98 ± 2%
  Sk · BF: 100 ± 0 % Δbase
  Temp: 37.1 ± 1.3 °C
[1]; IA-TCH, End
  CBF: 81 ± 13 % Δbase
  ETCO2: 92 ± 27 % Δbase
  HR: 310 ± 11 BMP
  Isoflurane: 2.2 ± 0.4 ET %
  Sk · BF: 92 ± 16 % Δbase
  Temp: 36.9 ± 1.1 °C
[1]; IA-TCH, Injection
  CBF: 29 ± 26 % Δbase
  ETCO2: 54 ± 50 % Δbase
  HR: 63 ± 41 BMP
  Isoflurane: 0.8 ± 0.9 ET %
  SaO2: 92 ± 11 %
  Sk · BF: 18 ± 10 % Δbase
  Temp: 36.6 ± 1.3 °C
[1]; IV, 5 min
  CBF: 73 ± 13b % Δbase
  ETCO2: 85 ± 37 % Δbase
  HR: 267 ± 68 BMP
  Isoflurane: 2.1 ± 0.2 ET %
  SaO2: 97 ± 4%
  Sk · BF: 106 ± 28 % Δbase
  Temp: 36.1 ± 0.9 °C
[1]; IV, Base
  CBF: 100 ± 0 % Δbase
  ETCO2: 100 ± 0 % Δbase
  HR: 267 ± 17 BMP
  Isoflurane: 2.2 ± 0.3 ET %
  SaO2: 100 ± 5%
  Sk · BF: 100 ± 0 % Δbase
  Temp: 35.9 ± 0.9 °C
[1]; IV, End
  CBF: 73 ± 12b % Δbase
  ETCO2: 86 ± 14 % Δbase
  HR: 283 ± 10 BMP
  Isoflurane: 2.1 ± 0.3 ET %
  SaO2: 99 ± 2%
  Sk · BF: 116 ± 30 % Δbase
  Temp: 36.5 ± 1.0 °C
[1]; IV, Injection
  CBF: 122 ± 21 % Δbase
  ETCO2: 75 ± 39 % Δbase
  HR: 274 ± 31 BMP
  Isoflurane: 0.4 ± 0.1 ET %
  SaO2: 97 ± 4%
  Sk · BF: 144 ± 50a,# % Δbase
  Temp: 35.9 ± 0.9 °C
